Test [1] addresses T1, Acetylcholinesterase (Electrophorus electricus, UniProt O42275).
Description: Inhibition of electric eel AChE pre-incubated for 3 mins before acetylthiocholine substrate addition by Ellman's reagent based spectrophotometry
The next test has as its target Cholinesterase (Equus caballus, UniProt P81908).
For test [2], the target named is T1, Acetylcholinesterase. This is another data set of the same source.
Description: Inhibition of electric eel AChE pre-incubated for 3 mins before acetylthiocholine substrate addition by Lineweaver-Burk plot

Molecules are shown by their SMILES.

T1 sequence (O42275 whole entry): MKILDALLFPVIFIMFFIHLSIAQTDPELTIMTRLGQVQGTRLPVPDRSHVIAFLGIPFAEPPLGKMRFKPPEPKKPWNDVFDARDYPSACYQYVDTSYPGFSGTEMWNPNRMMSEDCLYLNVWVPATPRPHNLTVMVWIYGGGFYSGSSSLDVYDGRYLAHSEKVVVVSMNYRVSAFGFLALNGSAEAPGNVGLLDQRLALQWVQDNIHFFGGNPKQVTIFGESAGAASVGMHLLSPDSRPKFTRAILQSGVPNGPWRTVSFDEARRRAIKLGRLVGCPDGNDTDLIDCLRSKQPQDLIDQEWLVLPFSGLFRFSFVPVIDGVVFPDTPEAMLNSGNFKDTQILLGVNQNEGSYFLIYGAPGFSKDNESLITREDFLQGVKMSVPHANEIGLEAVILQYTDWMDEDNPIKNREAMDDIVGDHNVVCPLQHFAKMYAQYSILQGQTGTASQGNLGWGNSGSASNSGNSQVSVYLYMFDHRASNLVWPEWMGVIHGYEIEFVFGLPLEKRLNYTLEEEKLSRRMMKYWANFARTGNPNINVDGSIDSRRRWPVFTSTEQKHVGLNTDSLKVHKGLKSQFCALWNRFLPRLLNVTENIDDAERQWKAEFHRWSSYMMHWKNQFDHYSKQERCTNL
Chain of Cholinesterase (P81908 whole entry): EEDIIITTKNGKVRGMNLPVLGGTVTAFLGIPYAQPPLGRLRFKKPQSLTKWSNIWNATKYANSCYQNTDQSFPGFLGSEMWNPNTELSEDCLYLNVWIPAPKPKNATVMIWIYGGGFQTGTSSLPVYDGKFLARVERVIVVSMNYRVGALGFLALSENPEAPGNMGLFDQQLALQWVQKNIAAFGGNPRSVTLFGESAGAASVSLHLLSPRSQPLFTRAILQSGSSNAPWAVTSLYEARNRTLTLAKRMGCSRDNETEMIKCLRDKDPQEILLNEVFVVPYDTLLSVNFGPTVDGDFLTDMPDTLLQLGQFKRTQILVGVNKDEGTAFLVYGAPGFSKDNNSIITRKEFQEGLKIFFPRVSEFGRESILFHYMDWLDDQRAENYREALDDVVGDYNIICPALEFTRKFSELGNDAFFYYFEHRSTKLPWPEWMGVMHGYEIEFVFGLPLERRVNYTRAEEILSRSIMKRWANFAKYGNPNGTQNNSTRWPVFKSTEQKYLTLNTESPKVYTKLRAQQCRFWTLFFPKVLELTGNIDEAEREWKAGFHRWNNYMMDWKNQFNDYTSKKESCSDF

As to `O=C1/C(=C/c2ccc(OCCCN3CCOCC3)cc2)COc2cc(O)ccc21`, the IC50 (as a rule, the concentration that inhibits the measured activity by half) at Acetylcholinesterase [1] turned out to be 158 µM. In the case of `O=C1/C(=C/c2ccc(OCCCN3CCCCC3)cc2)COc2cc(O)ccc21`, the results for the IC50 against Cholinesterase and against Acetylcholinesterase [1] were 27.4 µM and 2.38 µM, respectively. The like results for `O=C1/C(=C/c2ccc(OCCN3CCOCC3)cc2)COc2cc(O)ccc21` were, in that order, 96 µM and 8.16 µM.

On to `O=C1/C(=C/c2ccc(OCCN3CCCCC3)cc2)COc2cc(O)ccc21`, for which the IC50 against Cholinesterase was 2.16 µM; at Acetylcholinesterase [1], 0.192 µM. On to `COc1ccc2c(c1)OC/C(=C\c1ccc(OCCCN3CCCCC3)cc1)C2=O`, for which the IC50 against Cholinesterase is 26.3 µM; at Acetylcholinesterase [1], 3.29 µM. On the same counts, the results for `COc1ccc2c(c1)OC/C(=C\c1ccc(OCCN3CCCCC3)cc1)C2=O` are 8.2 µM and 0.173 µM. On the same counts, the results for `COc1ccc2c(c1)OC/C(=C\c1ccc(OCCN3CCOCC3)cc1)C2=O` are 11.6 µM and 1.9 µM. On the same counts, the results for `COc1ccc2c(c1)OC/C(=C\c1ccc(OCCCN3CCOCC3)cc1)C2=O` are 101 µM and 13.9 µM. Consider `COc1ccc2c(c1)OC/C(=C\c1ccc(OCCCN3CCCC3)cc1)C2=O`, for which the figures for the half-inhibitory concentration (IC50) against Cholinesterase and against Acetylcholinesterase [1] were 6.85 µM and 1.1 µM, respectively. On to `CCOc1ccc2c(c1)OC/C(=C\c1ccc(OCCN3CCCCC3)cc1)C2=O`, for which the affinity at Acetylcholinesterase [2] corresponds to a Ki of 0.27 µM. Also, the IC50 at Cholinesterase was 0.854 µM; against Acetylcholinesterase [1], 0.122 µM. Regarding `CCOc1ccc2c(c1)OC/C(=C\c1ccc(OCCCN3CCOCC3)cc1)C2=O`, the IC50 is 28.7 µM on Cholinesterase and 6.84 µM at Acetylcholinesterase [1]. On the same counts, the results for `CCOc1ccc2c(c1)OC/C(=C\c1ccc(OCCN3CCOCC3)cc1)C2=O` are 10.2 µM and 1 µM.

In the case of `CCOc1ccc2c(c1)OC/C(=C\c1ccc(OCCCN3CCCCC3)cc1)C2=O`, the IC50 against Cholinesterase came to 3.1 µM; against Acetylcholinesterase [1], 0.562 µM. The like results for `O=C1/C(=C/c2ccc(OCCN3CCOCC3)cc2)COc2cc(OCc3ccccc3)ccc21` were, in that order, 83.7 µM and 6.44 µM. As for `O=C1/C(=C/c2ccc(OCCCN3CCOCC3)cc2)COc2cc(OCc3ccccc3)ccc21`, inhibition at Acetylcholinesterase [1] was half-maximal at 50 µM (IC50). Consider `O=C1/C(=C/c2ccc(OCCN3CCCCC3)cc2)COc2cc(OCc3ccccc3)ccc21`, for which the IC50 against Cholinesterase was 2.58 µM; against Acetylcholinesterase [1] it was 0.207 µM. For the compound `O=C1/C(=C/c2ccc(OCCCN3CCCC3)cc2)COc2cc(OCc3ccccc3)ccc21`, the values for the IC50 at Cholinesterase and against Acetylcholinesterase [1] were 49 µM and 3.5 µM, respectively. The like results for `O=C1/C(=C/c2ccc(OCCCN3CCCCC3)cc2)COc2cc(OCc3ccccc3)ccc21` were, in that order, 32.4 µM and 2.7 µM.

The record behind these values is ChEMBL document CHEMBL3414493, “Design, synthesis and anticholinesterase activity of novel benzylidenechroman-4-ones bearing cyclic amine side chain” (Eur J Med Chem, 2015).
